According to patent US11214540B2, “Compositions for treating neurodegenerative diseases” (COGNITION THERAPEUTICS, INC., priority 2017, dated 2022):
Where two headings read alike, the source gives them in different places.

Experiments:
potassium channel hERG = potassium channel hERG (Homo sapiens (Human), UniProt Q12809); test: In vitro testing for hERG inhibition; format: biochemical; conditions: in vitro toxicity potassium channel hERG
Description: In vitro testing for hERG inhibition was performed in a standard assay (See: Haverkamp W, Breithardt G, Carnm A J, Janse M J, Rosen M R, Antzelevitch C, Escande D, Franz M, Malik M, Moss A and Shah R. (2000) Eur Heat J 21 (15); 1216-31).

[1] = system: Abeta oligomer-induced membrane trafficking deficits in primary hippocampal neurons; test: Membrane Trafficking/Exocytosis (MTT) assay, Abeta oligomer effect on neurons; format: cell-based, rat; conditions: membrane trafficking, read-out: EC50 Abeta;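 also: compound potency for inhibiting the Abeta oligomer effect on exocytosis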
Description: Compounds according to any embodiment described herein, were tested for their ability to inhibit an amyloid beta effect on the cells. The compounds generally were able to inhibit the amyloid beta effect as measured by a membrane trafficking/exocytosis assay (MTT assay). The rationale for this assay was as follows:
The present exocytosis assay was adapted for use with mature primary neuronal cultures grown for 3 weeks in vitro. See WO 2011/106785, which is incorporated herein by reference in its entirety. Abeta oligomers cause a dose-dependent decrease in the amount of intracellular vesicles (puncta) filled with reduced purple formazan as measured via image processing using a Cellomics VTI automated microscopy system. […] Increasing the amount of Abeta oligomers eventually results in overt toxicity. Thus, the concentration of neuroactive Abeta oligomers used in the assay is much lower than that causing cell death. […] When configured in this manner, the assay is able to detect compounds that inhibit nonlethal effects of Abeta oligomer whether these compounds act via disruption of oligomers, inhibition of oligomer binding to neurons, or counteraction of signal transduction mechanisms of action initiated by oligomer binding.
Primary hippocampal neurons from E18 Sprague-Dawley rat embryos were plated at optimized concentrations in 384 well plates in NB media (Invitrogen). Neurons were maintained in cultures for 3 weeks, with twice weekly feeding of NB media with N2 supplement (Invitrogen).
A test compound was added to cells at concentrations ranging from 100 uM to 0.001 nM followed by addition of vehicle or Abeta oligomer preparations (3 μM total Abeta protein concentration), and incubated for 1 to 24 hr at 37° C. in 5% CO2. MTT reagent (3-(4,5-dimethylthizaol-2yl)-2,5diphenyl tetrazolium bromide) (Roche Molecular Biochemicals) was reconstituted in phosphate buffered saline to 5 mg/mL. 10 μL of MTT labeling reagent is added to each well and incubated at 37° C. for 1 h, then imaged. Exocytosis was assessed by automated microscopy and image processing to quantify the amount of endocytosed and exocytosed formazan.
Each assay plate was formatted so that compounds are tested with and without Abeta oligomer on each plate. This design eliminates toxic or metabolically active compounds early on in the screening cascade (at the level of the primary screen). Reduced formazan was first visible in intracellular vesicles. Eventual formazan exocytosis was accelerated via Abeta oligomers.
Human amyloid peptide 1-42 was obtained from a number of commercial vendors such as California Peptide, with lot-choice contingent upon quality control analysis. Quality controls of oligomer preparations consist of Westerns to determine oligomer size ranges and relative concentrations, and the MTT assay to confirm exocytosis acceleration without toxicity. Toxicity was monitored in each image-based assay via quantification of nuclear morphology visualized with the DNA binding blue dye DAPI (Invitrogen). Nuclei that are fragmented are considered to be in late stage apoptosis (Majno and Joris '95) and the test would be rejected. Peptide lots producing unusual peptide size ranges or significant toxicity at a standard 1.5 μM concentration on neurons would also be rejected.
Data handling and analysis were accomplished by Cellomics VTI image analysis software and STORE automated database software. Because of the low dynamic range and neuronal well-to-well variability after three weeks in culture, statistical comparisons are made via pairwise Tukey-Kramer analysis to determine the significance of the separation between compound+Abeta oligomers from Abeta alone, and between compound alone from vehicle. The ability of mature primary neurons to more closely approximate the electrophysiologically mediated signal transduction network of the adult brain justifies this screening strategy. […]

log P = format: physicochemical
Summary of the method: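 Ratio of un-ionized compound concentrations between octanol and water, with aqueous pH set so the un-ionized form predominates. Value given as the log of the octanol/water ratio.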

Sequence of potassium channel hERG (Q12809 whole entry): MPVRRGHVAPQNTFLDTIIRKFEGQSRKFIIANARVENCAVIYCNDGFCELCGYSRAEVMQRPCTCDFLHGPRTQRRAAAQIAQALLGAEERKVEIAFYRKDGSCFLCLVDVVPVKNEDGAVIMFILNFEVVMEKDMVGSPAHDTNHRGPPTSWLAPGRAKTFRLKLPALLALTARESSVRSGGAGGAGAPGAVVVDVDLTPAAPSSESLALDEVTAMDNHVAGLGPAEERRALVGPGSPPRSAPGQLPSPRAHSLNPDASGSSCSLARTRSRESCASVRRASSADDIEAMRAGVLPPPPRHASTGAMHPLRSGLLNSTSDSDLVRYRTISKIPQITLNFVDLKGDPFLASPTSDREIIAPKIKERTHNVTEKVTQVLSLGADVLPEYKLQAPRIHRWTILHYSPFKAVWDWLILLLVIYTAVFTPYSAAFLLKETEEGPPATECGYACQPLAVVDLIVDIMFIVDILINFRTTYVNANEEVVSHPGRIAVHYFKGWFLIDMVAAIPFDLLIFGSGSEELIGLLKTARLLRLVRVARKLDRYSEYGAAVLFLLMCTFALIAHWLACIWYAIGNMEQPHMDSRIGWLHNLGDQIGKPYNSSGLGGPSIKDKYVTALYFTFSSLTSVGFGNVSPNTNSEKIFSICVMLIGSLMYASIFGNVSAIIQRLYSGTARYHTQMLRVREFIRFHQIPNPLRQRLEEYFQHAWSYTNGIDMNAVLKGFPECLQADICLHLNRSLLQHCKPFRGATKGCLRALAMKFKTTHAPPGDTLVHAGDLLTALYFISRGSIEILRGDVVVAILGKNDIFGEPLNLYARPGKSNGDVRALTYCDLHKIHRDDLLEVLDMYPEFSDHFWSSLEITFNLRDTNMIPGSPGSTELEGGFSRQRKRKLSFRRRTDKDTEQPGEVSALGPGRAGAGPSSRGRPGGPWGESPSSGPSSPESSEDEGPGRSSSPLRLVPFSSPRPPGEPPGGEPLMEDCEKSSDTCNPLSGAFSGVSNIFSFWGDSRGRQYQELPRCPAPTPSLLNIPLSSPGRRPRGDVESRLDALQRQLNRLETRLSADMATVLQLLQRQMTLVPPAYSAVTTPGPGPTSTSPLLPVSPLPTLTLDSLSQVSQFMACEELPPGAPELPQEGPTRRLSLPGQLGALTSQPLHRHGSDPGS

SMILES	IC50 (potassium channel hERG)	EC50 [1]	log P (log P)	EC50 ([1]; Rattus norvegicus, Hippocampal neuron)	logP (log P; octanol/water)
COC[C@@H]1CCCN1[C@@H](C=C(C)C)CC(C)(C)c1ccc(F)cc1 [Compound 244]	4.8 µM	8.5 µM	5.22	–	–
COC[C@H]1CCCN1[C@@H](C)CC(C)(C)c1ccc(C(F)(F)F)cc1 [Compound 254]	5 µM	–	4.95	–	–
CC(C)=CC(CC(C)(C)c1ccccc1)N1CCC(O)CC1 (stereo not shown) [Compound 201]	15 µM	15 µM	3.97	–	–
CC(C)=CC(COc1ccc(Cl)cc1)N1CCC(CCO)CC1 (stereo not shown) [Compound 188]	0.4 µM	–	4	–	–
CC(CC(C)(C)c1ccc(Cl)cc1)N1CCC(O)C1 (stereo not shown) [Compound 250]	28 µM	15 µM	3.51	–	–
CC(C)=C[C@@H](CC(C)(C)c1ccc(Cl)cc1)N1CCC[C@@H]1CO [Compound 239]	4.6 µM	–	5.04	–	–
CC(C)=CC(CC(C)(C)c1ccc(C(F)(F)F)cc1)N1CCC(O)(c2ccccc2)CC1 (stereo not shown) [Compound 205]	3.9 µM	0.59 µM	6.5	–	–
COCCC1(O)CCN(C(C=C(C)C)CC(C)(C)c2ccc(Cl)cc2)CC1 (stereo not shown) [Compound 217]	7.7 µM	4.6 µM	4.51	–	–
CC(C)=CC(CC(C)(C)c1ccc(F)cc1)N1CCC(N2CCOCC2)CC1 (stereo not shown) [Compound 126]	7.4 µM	0.3 µM	4.61	–	–
CC(C)=CC(CC(C)(C)c1ccc(Cl)cc1)N1CCC2(CC1)OCc1ccccc12 (stereo not shown) [Compound 187]	1 µM	–	6.62	–	–
CC(C)=CC(CC(C)(C)c1ccc(C(F)(F)F)cc1)N1CCC[C@H]1CO (stereo partly shown) [Compound 236]	20 µM	15 µM	5.31	–	–
CC(C)=C[C@H](CC(C)(C)c1ccc(F)cc1)N1CCC[C@@H]1CO [Compound 242]	14 µM	–	4.57	–	–
COC1CCN(C(C)CC(C)(C)c2ccc(Cl)cc2)CC1 (stereo not shown) [Compound 199]	1.2 µM	–	4.22	–	–
CC(C)=CC(CC(C)(C)c1ccc(Cl)cc1)N1CC[C@H](O)C1 (stereo partly shown) [Compound 230]	16 µM	10 µM	4.52	–	–
CC(C)=CC(CC(C)(C)c1ccc(Cl)cc1)N1CCN(C(=O)OCC(C)C)CC1 (stereo not shown) [Compound 198]	4.8 µM	–	6.2	–	–
CC(C)=CC(CC(C)(C)c1ccc(OC(C)C)cc1)N1CCC(C)(O)CC1 (stereo not shown) [Compound 180]	20 µM	–	4.87	–	–
CC(C)=CC(CC(C)(C)c1ccc(C(F)(F)F)cc1)N1CC[C@H](O)C1 (stereo partly shown) [Compound 232]	29 µM	15 µM	4.79	–	–
CC(C)=CC(CC(C)(C)c1ccccc1)N1CCC(C)(O)CC1 (stereo not shown) [Compound 213]	6.4 µM	6.6 µM	4.25	–	–
CC(C)=CC(CC(C)(C)c1ccc(C(F)(F)F)cc1)N1CCN(C(=O)OC(C)(C)C)CC1 (stereo not shown) [Compound 200]	83 µM	–	6.28	–	–
CCCCC1(O)CCN(C(C=C(C)C)CC(C)(C)c2ccc(C(F)(F)F)cc2)CC1 (stereo not shown) [Compound 212]	27 µM	1.8 µM	6.54	–	–

SMILES	IC50 (potassium channel hERG)	EC50 [1]	log P (log P)	EC50 ([1]; Rattus norvegicus, Hippocampal neuron)	logP (log P; octanol/water)
COCCCC1CCN(C(C=C(C)C)CC(C)(C)c2ccc(OC(C)(C)C)cc2)CC1 (stereo not shown) [Compound 183]	2.1 µM	–	6.79	–	–
CC(C)=CC(CC(C)(C)c1ccc(Cl)cc1)N1CCC(CCOC2CCOC2)CC1 (stereo not shown) [Compound 181]	1.8 µM	–	5.95	–	–
CC(C)=CC(CC(C)(C)c1ccc(F)cc1)N1CCC2(CC1)OCc1ccccc12 (stereo not shown) [Compound 185]	3 µM	–	6.16	–	–
CC1(O)CCN(CCC(C)(C)c2ccc(Cl)cc2)CC1 [Compound 192]	19 µM	–	3.44	–	–
COCCC1(O)CCN(C(C=C(C)C)CC(C)(C)c2ccc(F)cc2)CC1 (stereo not shown) [Compound 218]	13 µM	–	4.05	–	–
COCC1CCCN1C(C)CC(C)(C)c1ccc(Cl)cc1 (stereo not shown) [Compound 238]	13 µM	15 µM	4.67	–	–
COCC1CCCN1C(C=C(C)C)CC(C)(C)c1ccc(F)cc1 (stereo not shown) [Compound 245]	14 µM	> 15 µM	5.22	–	–
CCOC1CCN(C(C=C(C)C)CC(C)(C)c2ccc(Cl)cc2)CC1 (stereo not shown) [Compound 136]	2.1 µM	1.5 µM	5.58	–	–
COC[C@@H]1CCCN1[C@@H](C=C(C)C)CC(C)(C)c1ccccc1 [Compound 249]	9.4 µM	15 µM	5.07	–	–
CC(CC(C)(C)c1ccc(C(F)(F)F)cc1)N1CC[C@H](O)C1 (stereo partly shown) [Compound 233]	24 µM	0.26 µM	3.79	–	–
CC(CC(C)(C)c1ccc(Cl)cc1)N1CCCC1CO (stereo not shown) [Compound 229]	21 µM	15 µM	4.03	–	–
CC(C)=CC(CC(C)(C)c1ccc(C(F)(F)F)cc1)N1CCC(C)(O)CC1 (stereo not shown) [Compound 129]	24 µM	1.3 µM	5.13	–	–
COCC1CCCN1C(C=C(C)C)CC(C)(C)c1ccccc1 (stereo not shown) [Compound 252]	7 µM	15 µM	5.07	–	–
CC(C)=CC(CC(C)(C)c1ccc(C(F)(F)F)cc1)N1CCC(N2CCCCC2)CC1 (stereo not shown) [Compound 127]	3.3 µM	0.3 µM	6.41	–	–
CC(C)=C[C@@H](CC(C)(C)c1ccc(C(F)(F)F)cc1)N1CCC(C2CCOCC2)CC1 [Example 262]	–	–	–	1.85 µM	6.58
CC(C)=CC(CC(C)(C)c1ccc(Cl)cc1)N1CCC(c2ccnc(N(C)C)c2)CC1 (stereo not shown) [Compound 90]	–	20 µM	7.02	–	–
CC(C)=CC(CC(C)(C)c1ccc(F)cc1)N1CCC(C)(C)CC1 (stereo not shown) [Compound 131]	–	20 µM	6.24	–	–
COC1CCN(C(C=C(C)C)CC(C)(C)c2ccc(Cl)cc2)CC1 (stereo not shown) [Compound 142]	–	20 µM	5.22	–	–
COc1ccc(C(C)(C)CC(C=C(C)C)N2CCC(C(C)C)CC2)cc1 (stereo not shown) [Compound 86]	–	0.22 µM	6.37	–	–
COCCCC1CCN(C(C=C(C)C)CC(C)(C)c2ccc(F)cc2)CC1 (stereo not shown) [Compound 139]	–	20 µM	6.03	–	–
